Numbered stars: 1 amine (or outer) side, 2 acyl side, 3 side chain; on linkers, the order of the positions; unused ones are H or OH. Square brackets hold non-standard residues; d marks the D form. Peptide text beside a SMILES is read from it. * marks the point of attachment. ξ: configuration not given here. Phe(4-Me) = Cc1ccc(C[C@H](N)C(=O)O)cc1; ξNip = O=C(C1CCCN([*:1])C1)[*:2]; ξβ2hAla = CC(CN[*:1])C(=O)[*:2]; Phg = N[C@H](C(=O)O)c1ccccc1; Ac6c = NC1(C(=O)O)CCCCC1; Heptanoyl = CCCCCCC(=O)*; Propionyl = CCC(=O)*; Butyryl = CCCC(=O)*
Key:
human ORL1 [1] = target: T1, human ORL1 (Homo sapiens, UniProt P41146); test: Stimulation of [35S]GTPγS binding in membranes of CHO cells transfected with human ORL-1; assay type: biochemical; conditions: for [35S]GTPγS Binding Percent Stimulation: Table 1, relative to nociceptin; for EC50 ± SEM, stimulation of [35S]GTPγS binding: Table 6; for Emax: read-out: % Stimulation ± SEM of [35S]GTPγS binding
T1 construct: expressed in transfected cells; host or cells: CHO cells (G418-selected)
T1 sequence (P41146 whole entry): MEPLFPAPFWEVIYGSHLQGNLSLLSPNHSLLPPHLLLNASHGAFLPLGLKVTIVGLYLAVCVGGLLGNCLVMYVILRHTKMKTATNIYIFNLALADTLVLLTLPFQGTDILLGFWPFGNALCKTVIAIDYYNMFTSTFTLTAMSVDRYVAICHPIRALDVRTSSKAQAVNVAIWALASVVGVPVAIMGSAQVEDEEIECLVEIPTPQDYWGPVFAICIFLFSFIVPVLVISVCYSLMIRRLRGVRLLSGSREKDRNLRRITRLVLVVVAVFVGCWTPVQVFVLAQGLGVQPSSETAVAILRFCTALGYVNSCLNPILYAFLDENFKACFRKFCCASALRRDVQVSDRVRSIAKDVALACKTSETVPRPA
Description: First, CHO cells transfected with human ORL-1 are scraped from tissue culture dishes into 20 mM HEPES, 1 mM EDTA, and then centrifuged at 500×g for 10 minutes. The cells are then re-suspended in this buffer and homogenized using a Polytron Homogenizer.
The cellular homogenate is next centrifuged at 20,000×g for 20 minutes. Following this, the resulting pellet is re-suspended in a buffer containing 20 mM HEPES, 10 mM MgCl2, and 100 mM NaCl, having a resulting pH of 7.4. The suspension is then re-centrifuged at 20,000×g and suspended once more in the above-listed buffer. The pellet may be frozen at −70° C. prior to the final centrifugation. For the binding assay, membranes (10-20 μg protein) are incubated with [^35S]GTPγγS (50 pM), GDP (usually 10 μM), and the desired compound. The total volume of the mixture is 1 ml, which is incubated for 60 min at 25° C.
Following incubation, samples are filtered over glass fiber filters and counted. […]
In these [^35S]GTPγS assays, binding was conducted as described above. EC50 values and percent stimulation were determined using the program Prism.

human ORL1 [2] = target: T1, human ORL1; test: [3H]nociceptin binding to membranes of CHO cells transfected with human ORL1; conditions: for Hill Coefficient: Table 5

Compound | [35S]GTPγS Binding Percent Stimulation (human ORL1 [1]) [%] | Hill Coefficient (human ORL1 [2]) | Emax (human ORL1 [1]) [%] | further results
CCCC(=O)N[C@@H](CCCNC(=N)N)C(=O)N[C@@H](Cc1ccc(O)cc1)C(=O)N[C@@H](Cc1ccc(O)cc1)C(=O)N[C@@H](CCCNC(=N)N)C(=O)N[C@@H](Cc1c[nH]c2ccccc12)C(=O)N[C@@H](CCCNC(=N)N)C(N)=O [IV-15-A, Butryl-RYYRWR-NH2] (Butyryl-RYYRWR-NH2) | 63 | – | – | –
CCC(=O)N[C@@H](CCCNC(=N)N)C(=O)N[C@@H](Cc1ccc(O)cc1)C(=O)N[C@@H](Cc1ccc(O)cc1)C(=O)N[C@@H](CCCNC(=N)N)C(=O)N[C@@H](Cc1c[nH]c2ccccc12)C(=O)N[C@@H](CCCNC(=N)N)C(N)=O [IV-16-C, Propionyl-RYYRWR-NH2] (Propionyl-RYYRWR-NH2) | 82 | – | – | IC50 (human ORL1 [2]): 1.2 nM; agonist/antagonist character at ORL1 (human ORL1 [1]; in words): nearly full agonist
CCCCCCC(=O)N[C@@H](CCCNC(=N)N)C(=O)N[C@@H](Cc1ccc(O)cc1)C(=O)N[C@@H](Cc1ccc(O)cc1)C(=O)N[C@@H](CCCNC(=N)N)C(=O)N[C@@H](Cc1c[nH]c2ccccc12)C(=O)N[C@@H](CCCNC(=N)N)C(N)=O [IV-18-C, Heptanoyl-RYYRWR-NH2] (Heptanoyl-RYYRWR-NH2) | 54 | – | – | IC50 (human ORL1 [2]): 2.6 nM
N=C(N)NCCC[C@H](NC(=O)[C@H](Cc1c[nH]c2ccccc12)NC(=O)[C@H](CCCNC(=N)N)NC(=O)[C@H](Cc1ccc(O)cc1)NC(=O)[C@H](Cc1ccc(O)cc1)NC(=O)[C@H](CCCNC(=N)N)NC(=O)C1CCCNC1)C(N)=O (stereo partly drawn) [VII-1-A, Nipacotyl-Arg-Tyr-Tyr-Arg-Trp-Arg-NH2] (ξNip-RYYRWR-NH2) | – | 0.97 | < 20 | EC50 ± SEM, stimulation of [35S]GTPγS binding (human ORL1 [1]): FLAT
CC(CN)C(=O)N[C@@H](CCCNC(=N)N)C(=O)N[C@@H](Cc1ccc(O)cc1)C(=O)N[C@@H](Cc1ccc(O)cc1)C(=O)N[C@@H](CCCNC(=N)N)C(=O)N[C@@H](Cc1c[nH]c2ccccc12)C(=O)N[C@@H](CCCNC(=N)N)C(N)=O (stereo partly drawn) [VII-3-A, β-aminoisobutryl-Arg-Tyr-Tyr-Arg-Trp-Arg-NH2] (ξβ2hAla-RYYRWR-NH2) | – | 0.72 | 29.1 ± 1.9 | –
N=C(N)NCCC[C@H](NC(=O)[C@H](Cc1c[nH]c2ccccc12)NC(=O)[C@H](CCCNC(=N)N)NC(=O)[C@H](Cc1ccc(O)cc1)NC(=O)[C@H](Cc1ccc(O)cc1)NC(=O)[C@H](CCCNC(=N)N)NC(=O)C1(N)CCCCC1)C(N)=O [VII-4-B, 1-aminocyclohexanoyl-Arg-Tyr-Tyr-Arg-Trp-Arg-NH2] (H-[Ac6c]RYYRWR-NH2) | – | 1.0 | < 20 | EC50 ± SEM, stimulation of [35S]GTPγS binding (human ORL1 [1]): FLAT
CC(=O)N[C@@H](CCCNC(=N)N)C(=O)N[C@H](C(=O)N[C@H](C(=O)N[C@@H](CCCNC(=N)N)C(=O)N[C@@H](Cc1c[nH]c2ccccc12)C(=O)N[C@@H](CCCNC(=N)N)C(N)=O)c1ccccc1)c1ccccc1 [VII-11-B, Ac-Arg-Phg-Phg-Arg-Trp-Arg-NH2] (Ac-R[Phg][Phg]RWR-NH2) | – | 0.93 | – | –
CC(=O)N[C@@H](CCCNC(=N)N)C(=O)N[C@@H](Cc1ccc(O)cc1)C(=O)N[C@H](C(=O)N[C@@H](CCCNC(=N)N)C(=O)N[C@@H](Cc1c[nH]c2ccccc12)C(=O)N[C@@H](CCCNC(=N)N)C(N)=O)c1ccccc1 [VII-13-B, Ac-Arg-Tyr-Phg-Arg-Trp-Arg-NH2] (Ac-RY[Phg]RWR-NH2) | – | 0.73 | – | –
CC(=O)N[C@@H](CCCNC(=N)N)C(=O)N[C@@H](Cc1ccc(C)cc1)C(=O)N[C@@H](Cc1ccc(O)cc1)C(=O)N[C@@H](CCCNC(=N)N)C(=O)N[C@@H](Cc1c[nH]c2ccccc12)C(=O)N[C@@H](CCCNC(=N)N)C(N)=O [VII-15-B, Ac-Arg-Phe(4-Me)-Tyr-Arg-Trp-Arg-NH2] (Ac-R[Phe(4-Me)]YRWR-NH2) | – | 0.79 | 59.8 ± 16.2 | –
Ac-Arg-Phe(SO3H)-Tyr-Arg-Trp-Arg-NH2 (Ac-R[Phe(SO3H)]YRWR-NH2) [VII-27-B] | – | 1.12 | – | –
Ac-RYYRWR-NH2 [Ac-RYYRWR-NH2] [listing 1 of 2 here] | – | – | – | EC50 (human ORL1 [1]): 1.2 nM
Ac-RYYRWR-NH2 [Ac-RYYRWR-NH2] [listing 2 of 2 here] | 100 | – | – | –

Reference: US7863416B2, “Nociceptin-based analgesics” (Synvax, Inc., priority 2001, dated 2011)
